Four compounds from publication PMC8880564, “Design, Synthesis, and Biological Evaluation of a Novel VEGFR-2 Inhibitor Based on a 1,2,5-Oxadiazole-2-Oxide Scaffold with MAPK Signaling Pathway Inhibition” (Pharmaceuticals, 2022) can be followed below.

What all share (test): NCI-60 one-dose SRB screening
Holding throughout (type): cell-based

One test concerns EKVX. As to conditions: Homo sapiens, Non-Small Cell Lung Cancer, 10 µM one dose, 48 h, read-out: growth percentage. The procedure:
(§1) The structures of the synthesized compounds 6a–h, 12a–c, 11, 13a–c, and 14a–c were submitted to the National Cancer Institute’s Developmental Therapeutics Program (NCI-DTP), and all of them were selected for preliminary in vitro anticancer activity screening against NCI-59 human cancer cell lines at a concentration of 10 µM, using the sulforhodamine B (SRB) assay to determine the growth percentage and cell viability.
(§2) The in vitro NCI-60 cell line screening assay was conducted at the National Cancer Institute (NCI), Bethesda, USA against 59 cancer cell lines representing 9 types of cancers, as reported earlier. Briefly, the human cancer cell lines were grown in RPMI 1640 medium containing 5% fetal bovine serum and 2 mM L-glutamine and inoculated into 96-well microtiter plates in 100 μL (5000 to 40,000 cells/well). Then, the plates were incubated at 37 °C, 5% CO2, 95% air, and 100% relative humidity for 24 h. After that, two plates of each cell line were fixed in situ with TCA, to represent cell population at time zero (Tz). The tested compounds were dissolved in DMSO at 400-fold and added so that the final concentration became 10 μM. The plates were then incubated for an additional 48 h followed by the addition of cold TCA to terminate the assay in case of adherent cells. Then, the cells were fixed in situ by cold 50% (w/v) TCA (50 μL; final concentration, 10% TCA) and incubated for 1 h at 4 °C. After discarding the supernatant, the plates were washed 5 times with tap water and air dried. Sulforhodamine B (SRB) solution (100 μL) at 0.4% (w/v) in 1% HOAc was added to each well, and plates were incubated for 10 min. at rt. Then, washing with 1% acetic acid was conducted 5 times to remove the unbound dye followed by air drying. After that, 10 mM trizma base was added to solubilize the bound stain, and the absorbance was read on an automated plate reader at a wavelength of 515 nm. On the other hand, the methodology for suspension cells was the same except that 50 μL of 80% TCA (final concentration, 16% TCA) was gently added to terminate the assay by fixing settled cells at the bottom of the wells. Percentage growth inhibition (GI%) was calculated as follows:
(§3) Growth percentage=Ti (test growth in the presence of compound at 10 µM )−Tz (time zero)/C (control growth)−Tz (time zero)×100 for Ti ≥ Tz;
(§4) Growth percentage=Ti (test growth in the presence of compound at 10 µM )−Tz (time zero)/Tz (time zero)×100 for Ti < Tz.
(§5) where values of 100, 40, 0, −40, and −100 mean no GI, 60% GI, no net G, 40% lethality, and all cells are dead, respectively.

The test system of a further test is SK-MEL-5. As to conditions: Homo sapiens, SK-MEL-5, Melanoma, 10 µM one dose, 48 h, read-out: growth percentage. The method, then: as §1, §2, §3, §4, §5
In a further test the test system is IGROV1. As to conditions: Homo sapiens, IGROV-1, IGROV1, Ovarian Cancer, 10 µM one dose, 48 h, read-out: growth percentage. The method, then:
as §1, §2, §3, §4, §5

The next test deals with UACC-257. As to conditions: Homo sapiens, UACC-257, Melanoma, 10 µM one dose, 48 h, read-out: growth percentage. The method, then:
as §1, §2, §3, §4, §5

The subject of the next test is RXF 393. The note with it: Homo sapiens, RXF 393, Renal Cancer, 10 µM one dose, 48 h, read-out: growth percentage. The procedure:
as §1, §2, §3, §4, §5

The subject of another test is ACHN. As to conditions: Homo sapiens, Renal Cancer, 10 µM one dose, 48 h, read-out: growth percentage. The method, then:
as §1, §2, §3, §4, §5

For another test, the system named is NCI-H23. As to conditions: Homo sapiens, NCI-H23, Non-Small Cell Lung Cancer, 10 µM one dose, 48 h, read-out: growth percentage. The method, then: as §1, §2, §3, §4, §5
Another test deals with T-47D. The note with it: Homo sapiens, T47D, Breast Cancer, 10 µM one dose, 48 h, read-out: growth percentage. The method, then:
as §1, §2, §3, §4, §5

A further test concerns LOX IMVI. As to conditions: Homo sapiens, Melanoma, 10 µM one dose, 48 h, read-out: growth percentage. The procedure:
as §1, §2, §3, §4, §5

The test system of a further test is CAKI-1. As to conditions: Homo sapiens, CAKI-1, Renal Cancer, 10 µM one dose, 48 h, read-out: growth percentage. The procedure: as §1, §2, §3, §4, §5
Another test deals with MCF7. As to conditions: Homo sapiens, MCF7, Breast Cancer, 10 µM one dose, 48 h, read-out: growth percentage. The method, then: as §1, §2, §3, §4, §5
Another test relates to NCI-H460. The note with it: Homo sapiens, NCI-H460, Non-Small Cell Lung Cancer, 10 µM one dose, 48 h, read-out: growth percentage. The method, then: as §1, §2, §3, §4, §5
For a further test, the system named is COLO 205. The note with it: Homo sapiens, COLO 205, Colon Cancer, 10 µM one dose, 48 h, read-out: growth percentage. The procedure:
as §1, §2, §3, §4, §5

The next test has as its system NCI-H522. As to conditions: Homo sapiens, NCI-H522, Non-Small Cell Lung Cancer, 10 µM one dose, 48 h, read-out: growth percentage. The procedure:
as §1, §2, §3, §4, §5

The subject of a further test is HOP-92. The note with it: Homo sapiens, HOP-92, Non-Small Cell Lung Cancer, 10 µM one dose, 48 h, read-out: growth percentage. The method, then:
as §1, §2, §3, §4, §5

The subject of another test is K-562. The note with it: Homo sapiens, K562, K-562, Leukemia, 10 µM one dose, 48 h, read-out: growth percentage. The procedure:
as §1, §2, §3, §4, §5

The next test concerns OVCAR-3. As to conditions: Homo sapiens, OVCAR-3, Ovarian Cancer, 10 µM one dose, 48 h, read-out: growth percentage. The method, then:
as §1, §2, §3, §4, §5

A further test has as its system MDA-MB-468. As to conditions: Homo sapiens, MDA-MB-468, Breast Cancer, 10 µM one dose, 48 h, read-out: growth percentage. The method, then:
as §1, §2, §3, §4, §5

Another test has as its system TK-10. The note with it: Homo sapiens, TK-10, Renal Cancer, 10 µM one dose, 48 h, read-out: growth percentage. The method, then:
as §1, §2, §3, §4, §5

The next test concerns UACC-62. The note with it: Homo sapiens, UACC-62, Melanoma, 10 µM one dose, 48 h, read-out: growth percentage. The method, then:
as §1, §2, §3, §4, §5

In the next test the test system is NCI/ADR-RES. As to conditions: Homo sapiens, Ovarian Cancer, 10 µM one dose, 48 h, read-out: growth percentage. The procedure:
as §1, §2, §3, §4, §5

The next test deals with A498. As to conditions: Homo sapiens, A498, Renal Cancer, 10 µM one dose, 48 h, read-out: growth percentage. The method, then:
as §1, §2, §3, §4, §5

With `Cc1nc(Nc2ccc(OCc3c(-c4ccccc4)no[n+]3[O-])cc2)c2c(C)nn(-c3ccc(Br)cc3)c2n1` [6h, 3-((4-((1-(4-bromophenyl)-3,6-dimethyl-1H-pyrazolo[3,4-d]pyrimidin-4-yl)amino)phenoxy)methyl)-4-phenyl-1,2,5-oxadiazole 2-oxide], the activity at 10 µM with EKVX was 92.3%; in the test on SK-MEL-5, 91.5%; in the test on IGROV1, 99%; in the test on UACC-257 it was 99.8%; in the test with RXF 393, 136%; in the test with ACHN, 98.7%. Besides, the activity at 10 µM with NCI-H23 was determined as 96.6%; with T-47D it was 81.4%; in the test with LOX IMVI it was 98.9%; in the test on CAKI-1 it was 83.8%; with MCF7 it was 87.4%; in the test on NCI-H460 it was 100%. Besides, the activity at 10 µM in the test on COLO 205 came to 94.4%; in the test with NCI-H522, 84%; in the test with HOP-92 it was 94.6%; in the test with K-562, 83.6%; with OVCAR-3 it was 104%; with MDA-MB-468 it was 116%. In addition, the activity at 10 µM with TK-10 turned out to be 114%; with UACC-62, 80.2%; in the test with NCI/ADR-RES it was 102%; in the test on A498, 110%.
For the compound `Cc1nn(-c2ccccc2)c2nc(C(F)(F)F)nc(Nc3ccc(NCc4c(-c5ccccc5)no[n+]4[O-])cc3)c12` [12a, 3-(((4-((3-methyl-1-phenyl-6-(trifluoromethyl)-1H-pyrazolo[3,4-d]pyrimidin-4-yl)amino)phenyl)amino)methyl)-4-phenyl-1,2,5-oxadiazole 2-oxide], the activity at 10 µM in the test on EKVX turned out to be 73.2%; in the test with SK-MEL-5, 70.3%; in the test with IGROV1, 77.9%; in the test with UACC-257, 103%; in the test with RXF 393 it was 86.8%; in the test with ACHN, 77.7%. The activity at 10 µM with NCI-H23 stood at 96.7%; in the test with T-47D it was 80.5%; in the test with LOX IMVI it was 58%; in the test on CAKI-1 it was 53%; in the test on MCF7 it was 58.5%; with NCI-H460, 53%. For the same compound, the activity at 10 µM was 73.6% in the test on COLO 205; 91.4% in the test with NCI-H522; 90.1% in the test with HOP-92; 39.8% in the test on K-562; 105% with OVCAR-3; 75.8% with MDA-MB-468. Also, the activity at 10 µM in the test with TK-10 was found to be 94.4%; in the test with UACC-62 it was 64.9%; in the test on NCI/ADR-RES, 83%; in the test with A498, 94.4%.
Turning to `[O-][n+]1onc(-c2ccccc2)c1CNc1ccc(Nc2nc(C(F)(F)F)nc3c2cnn3-c2ccc(Br)cc2)cc1` [12b, 3-(((4-((1-(4-bromophenyl)-6-(trifluoromethyl)-1H-pyrazolo[3,4-d]pyrimidin-4-yl)amino)phenyl)amino)methyl)-4-phenyl-1,2,5-oxadiazole 2-oxide], the activity at 10 µM with EKVX came to 65.4%; with SK-MEL-5 it was 86%; in the test with IGROV1, 60.1%; with UACC-257, 102%; in the test on RXF 393 it was 51.2%; with ACHN, 56.9%. In addition, the activity at 10 µM came to 72.4% with NCI-H23; 68.8% in the test on T-47D; 27.9% with LOX IMVI; 31.1% in the test with CAKI-1; 38.8% in the test on MCF7; 35.6% in the test with NCI-H460. The activity at 10 µM amounted to 74.6% with COLO 205; 72.6% with NCI-H522; 68.4% in the test with HOP-92; 22.8% in the test with K-562; 92% in the test on OVCAR-3; 72% in the test with MDA-MB-468. In addition, the activity at 10 µM in the test with TK-10 amounted to 86.8%; in the test on UACC-62, 64.9%; in the test with NCI/ADR-RES it was 66.4%; in the test on A498, 97.4%.
As for `Cc1nn(-c2ccc(Br)cc2)c2nc(C(F)(F)F)nc(Nc3ccc(NCc4c(-c5ccccc5)no[n+]4[O-])cc3)c12` [12c, 3-(((4-((1-(4-bromophenyl)-3-methyl-6-(trifluoromethyl)-1H-pyrazolo[3,4-d]pyrimidin-4-yl)amino)phenyl)amino)methyl)-4-phenyl-1,2,5-oxadiazole 2-oxide], the activity at 10 µM is 71.1% in the test with EKVX; 61.7% with SK-MEL-5; 59.6% in the test on IGROV1; 95.7% with UACC-257; 89.2% in the test on RXF 393; 68.1% with ACHN. Besides, the activity at 10 µM with NCI-H23 came to 91.6%; with T-47D it was 85.6%; with LOX IMVI, 48.5%; with CAKI-1, 55%; with MCF7 it was 68.2%; with NCI-H460, 46.6%. In addition, the activity at 10 µM in the test with COLO 205 worked out at 73.2%; with NCI-H522 it was 83.5%; with HOP-92, 82.3%; with K-562, 51.4%; with OVCAR-3 it was 91.6%; in the test with MDA-MB-468 it was 84.2%. In addition, the activity at 10 µM in the test with TK-10 came to 109%; with UACC-62, 62.5%; in the test with NCI/ADR-RES, 88.8%; in the test with A498 it was 117%.
